Entries after “also recorded” stand apart in the source; their conditions may differ.
Key:
Mia Paca-2 tumor = experiment: In vivo efficacy on Mia Paca-2 pancreatic cancer (alone or with trametinib); parameters: species or system mice
Protocol: (§1) After one week of adaptive feeding of mice, Mia Paca-2 cells in a logarithmic phase were resuspended in serum-free DMEM, and then mixed with Matrigel in a ratio of 1:1. 1×10^7 Mia Paca-2 cells were inoculated subcutaneously at the right flank at 100 μL per mouse, and tumor growth was observed regularly. When the tumor grew to an average volume of 150 to 200 mm^3, the mice were randomly divided into a model group and an administration group (single drug, in combination with trametinib) based on the tumor size and body weight. The tumor size and body weight were measured and recorded before and during the administration. After the treatment, the tumor size in the model group was compared with that in the administration group to determine the efficacy.

NCI-H1975 tumor = experiment: In vivo efficacy on NCI-H1975 non-small cell lung cancer (in combination with osimertinib); parameters: species or system mice
CYP3A4 = target: T1, CYP3A4 (Homo sapiens, UniProt P08684); experiment: Inhibition of cytochrome P450 CYP3A4 (substrates midazolam and testosterone); assay type: in vitro ADME; details: role: inhibitor; summary statement
T1 construct: probe substrates midazolam and testosterone, ketoconazole control

KRAS G12C-SOS1 [1] = target: T2, KRAS G12C-SOS1 (Homo sapiens, UniProt Q07889); experiment: Inhibitory effect on KRAS G12C-SOS1; assay type: biochemical; parameters: SOS1 catalytic domain likely; details: summary statement
T2 sequence (Q07889 1-1333): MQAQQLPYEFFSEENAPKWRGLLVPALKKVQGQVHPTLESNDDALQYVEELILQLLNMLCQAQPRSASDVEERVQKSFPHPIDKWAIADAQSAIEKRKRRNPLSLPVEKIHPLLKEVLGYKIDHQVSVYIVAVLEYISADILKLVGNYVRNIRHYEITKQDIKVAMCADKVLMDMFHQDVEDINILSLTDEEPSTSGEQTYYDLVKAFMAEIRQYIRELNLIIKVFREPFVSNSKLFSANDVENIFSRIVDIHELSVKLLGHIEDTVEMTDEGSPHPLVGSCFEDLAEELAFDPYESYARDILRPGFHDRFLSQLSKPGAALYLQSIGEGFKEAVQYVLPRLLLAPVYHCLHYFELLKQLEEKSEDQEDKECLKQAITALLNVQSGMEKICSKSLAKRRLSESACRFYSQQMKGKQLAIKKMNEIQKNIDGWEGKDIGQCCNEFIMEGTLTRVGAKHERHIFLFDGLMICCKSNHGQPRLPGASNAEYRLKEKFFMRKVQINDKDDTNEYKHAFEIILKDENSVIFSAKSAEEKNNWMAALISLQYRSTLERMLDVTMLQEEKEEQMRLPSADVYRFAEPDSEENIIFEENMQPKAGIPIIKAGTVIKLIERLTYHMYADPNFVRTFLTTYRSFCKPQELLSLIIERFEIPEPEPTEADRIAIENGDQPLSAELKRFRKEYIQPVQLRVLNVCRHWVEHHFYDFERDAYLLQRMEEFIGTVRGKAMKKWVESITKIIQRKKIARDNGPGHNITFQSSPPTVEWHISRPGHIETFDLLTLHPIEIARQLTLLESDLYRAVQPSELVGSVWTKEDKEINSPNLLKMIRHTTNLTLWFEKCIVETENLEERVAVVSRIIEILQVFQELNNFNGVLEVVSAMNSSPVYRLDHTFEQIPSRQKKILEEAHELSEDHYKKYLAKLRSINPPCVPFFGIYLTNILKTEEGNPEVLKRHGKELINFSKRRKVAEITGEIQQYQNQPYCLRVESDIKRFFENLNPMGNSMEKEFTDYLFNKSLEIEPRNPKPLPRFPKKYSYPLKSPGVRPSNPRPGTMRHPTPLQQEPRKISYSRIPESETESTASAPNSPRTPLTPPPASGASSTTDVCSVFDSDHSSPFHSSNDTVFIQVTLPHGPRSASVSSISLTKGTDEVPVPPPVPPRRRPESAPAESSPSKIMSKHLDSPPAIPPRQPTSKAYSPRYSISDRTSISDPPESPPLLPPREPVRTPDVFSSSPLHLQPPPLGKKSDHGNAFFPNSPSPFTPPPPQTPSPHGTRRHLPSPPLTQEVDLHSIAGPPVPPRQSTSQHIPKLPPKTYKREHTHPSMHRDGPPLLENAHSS

KRAS G12C-SOS1 [2] = target: T2, KRAS G12C-SOS1; experiment: Inhibition of KRAS G12C::SOS1 binding; details: summary statement
LOVO tumor = experiment: In vivo efficacy on LOVO colorectal cancer; parameters: species or system mice
Protocol: as §1, with “LOVO” for “Mia Paca-2”, “F12K, 5×10^6 LOVO” for “DMEM, and then mixed with Matrigel in a ratio of 1:1. 1×10^7 Mia Paca-2”, “group” for “group (single drug, in combination with trametinib)”

[3] = Mouse pharmacokinetic test, oral gavage; assay type: in vivo, male ICR mice; details: summary statement; listed as compound of the present disclosure
Protocol: Male ICR mice (20 to 25 g) were used, and fasted overnight. Three mice were taken and orally administered by gavage (10 mg/kg). Blood was collected before the administration, and at 15 min, 30 min, 1 h, 2 h, 4 h, 8 h, and 24 h after the administration. 6,800 g of the blood samples were centrifuged at 2 to 8 °C for 6 min, and plasma was collected and stored at −80 °C The plasma at each time point was taken and added with an acetonitrile solution containing internal standard in 3 to 5 times the amount, vortexed and mixed for 1 min, and centrifuged at 13,000 rpm/min at 4 °C for 10 min. The supernatant was collected, added with water in 3 times the amount, and mixed. An appropriate amount of the mixture was taken for LC-MS/MS analysis. The main pharmacokinetic parameters were analyzed using WinNonlin 7.0 software with non-compartmental model.

T1 sequence (P08684 whole entry): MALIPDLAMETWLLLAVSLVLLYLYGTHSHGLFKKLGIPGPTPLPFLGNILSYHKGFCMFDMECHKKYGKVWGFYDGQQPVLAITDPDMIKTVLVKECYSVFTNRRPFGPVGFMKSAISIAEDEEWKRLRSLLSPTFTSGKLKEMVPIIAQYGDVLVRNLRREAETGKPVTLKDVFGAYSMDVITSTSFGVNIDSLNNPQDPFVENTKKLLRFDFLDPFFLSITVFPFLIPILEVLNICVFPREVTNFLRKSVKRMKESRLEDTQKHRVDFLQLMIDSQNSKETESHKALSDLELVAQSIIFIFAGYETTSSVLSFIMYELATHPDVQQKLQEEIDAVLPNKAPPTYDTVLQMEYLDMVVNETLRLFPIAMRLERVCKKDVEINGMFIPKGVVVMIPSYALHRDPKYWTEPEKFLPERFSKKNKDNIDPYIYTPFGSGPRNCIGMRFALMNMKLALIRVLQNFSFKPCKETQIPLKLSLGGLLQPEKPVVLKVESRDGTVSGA

inhibitory effect on CYP3A4 enzymes (CYP3A4): no inhibitory effect | inhibitory effect on KRAS G12C-SOS1 (KRAS G12C-SOS1 [1]): significant inhibitory effect | inhibitory effect on KRAS G12C::SOS1 binding (KRAS G12C-SOS1 [2]): significant inhibitory effect
Compound: Cc1nc(N[C@H](C)c2cccc(S(F)(F)(F)(F)F)c2)c2cn(C3(CF)CC3)c(=O)cc2n1 [compound of formula I, (R)-6-(1-(fluoromethyl)cyclopropyl)-2-methyl-4-((1-(3-(pentafluorosulfanyl)phenyl)ethyl)amino)pyrido[4,3-d]pyrimidin-7(6H)-one]
inhibitory effect on Mia Paca-2 tumor growth (Mia Paca-2 tumor; alone or in combination with trametinib): significant inhibitory effect | combined use with trametinib vs single use, Mia Paca-2 tumor growth (Mia Paca-2 tumor; in combination with trametinib): more effective than the single use | average tumor volume at the end of the treatment vs single-drug group of osimertinib (NCI-H1975 tumor; compound I-1 7.5 mg/kg BID or 25 mg/kg BID + osimertinib 1 mg/kg QD): significantly reduced, and the difference is statistically significant | synergistic effect of combined administration (NCI-H1975 tumor; compound I-1 25 mg/kg BID + osimertinib 1 mg/kg QD): synergistic effect | anti-tumor efficacy of combination with osimertinib vs single-drug administration (NCI-H1975 tumor; in combination with osimertinib): significantly better than that of single-drug administration | inhibitory effect on LOVO tumor tissue growth vs control compound II (LOVO tumor; comparison with control compound II): better than that of the control compound II | inhibitory effect on LOVO tumor tissue growth (LOVO tumor; mouse, in vivo): significant inhibitory effect | pharmacokinetic properties / exposure [3]: high exposure; also recorded: excellent pharmacokinetic properties

Source: patent US20260337190A1, “CRYSTAL FORM OF PYRIDINOPYRIMIDINONE COMPOUND, ACID SALT THEREOF, CRYSTAL FORM OF ACID SALT THEREOF, AND USE” (Wuhan Humanwell Innovative Drug Research and Development …, priority 2022, published 2026)
